Literature values in patent publication US7799335B2, “Differential delivery of nitric oxide” (Boston Scientific Scimed, Inc., priority 2001, dated 2010).

What was measured:
[1] = test system: vasodilation; settings: compared with SNAP
[2] = test system: platelet aggregation; settings: compared with SNAP
[3] = test system: human aortic vascular smooth muscle cells; settings: exogenously and endogenously produced nitric oxide, 10^−5 to 10^−3 molar; Tanner et al. 2000
[4] = test system: endothelial cells; settings: low levels of nitric oxide (SNP 10-50 uM); Rossig et al. 2000

Structure (SMILES)	effectiveness as vasodilator [1]	inhibition of platelet aggregation [2]	effect on smooth muscle cell proliferation [3]	effect on TNF-alpha induced apoptosis [4]
N[C@@H](CCC(=O)N[C@@H](CSN=O)C(=O)NCC(=O)O)C(=O)O [GSN70, S-nitrosoglutathione]	less effective vasodilator than SNAP	the opposite is true		
[N]=O [nitric oxide]			prevented smooth muscle cell proliferation by inducing G1 phase arrest	prevented TNF-alpha induced apoptosis in endothelial cells
